Data from ChEMBL document CHEMBL5356959, “Bifunctional backbone modified squaramide dipeptides as amyloid beta (Aβ) aggregation inhibitors” (Bioorg Med Chem, 2024).
Calls of active or inactive are those of the source. The calls are words filed in the database; no cut-off is given here.

Experiments:
N2a = experiment: Cytotoxicity against mouse Neuro2a cells assessed as reduction in cell viability at 50 uM incubated for 48 hrs by Alamar blue assay; assay type: toxicity, cell-based
[1] = molecular target: T1, Amyloid-beta precursor protein (Homo sapiens, UniProt P05067); experiment: Inhibition of amyloid-beta (unknown origin) aggregation at 1:10 compound:amyloidbeta ratio incubated for 24 hrs by ThT fluorescence assay
T1 sequence (P05067 whole entry): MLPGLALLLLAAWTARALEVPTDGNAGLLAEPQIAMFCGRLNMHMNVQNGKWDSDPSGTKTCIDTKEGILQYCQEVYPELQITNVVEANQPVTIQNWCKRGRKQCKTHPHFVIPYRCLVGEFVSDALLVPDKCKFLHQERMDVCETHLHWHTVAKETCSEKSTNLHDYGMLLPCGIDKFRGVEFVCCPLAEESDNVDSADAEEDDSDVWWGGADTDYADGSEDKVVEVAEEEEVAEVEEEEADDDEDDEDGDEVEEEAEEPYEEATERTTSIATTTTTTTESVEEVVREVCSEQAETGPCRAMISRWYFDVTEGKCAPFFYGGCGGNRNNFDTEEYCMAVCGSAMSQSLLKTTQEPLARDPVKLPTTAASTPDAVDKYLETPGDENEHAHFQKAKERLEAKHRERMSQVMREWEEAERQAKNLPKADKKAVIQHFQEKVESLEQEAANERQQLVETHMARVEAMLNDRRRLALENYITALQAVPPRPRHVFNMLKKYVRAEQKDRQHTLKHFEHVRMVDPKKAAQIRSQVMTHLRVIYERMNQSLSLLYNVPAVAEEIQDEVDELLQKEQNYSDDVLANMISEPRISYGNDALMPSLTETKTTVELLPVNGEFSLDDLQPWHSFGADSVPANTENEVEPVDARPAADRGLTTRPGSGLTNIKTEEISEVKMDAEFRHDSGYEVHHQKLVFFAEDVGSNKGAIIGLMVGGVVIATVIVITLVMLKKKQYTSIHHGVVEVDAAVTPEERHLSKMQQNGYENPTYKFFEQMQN

[2] = molecular target: T1, Amyloid-beta precursor protein; experiment: Inhibition of amyloid-beta (unknown origin) aggregation at 25 uM at 1:10 compound:amyloidbeta ratio incubated for 24 hrs by ThT fluorescence assay
[3] = Competitive binding affinity to Cu(II) assessed as metal chelating activity by measuring compound-Cu(II) complex formation incubated for 30 mins in the presence of MnCl2 by UV-vis spectrophotometric analysis
[4] = Competitive binding affinity to Zn(II) assessed as metal chelating activity by measuring compound-Zn(II) complex formation incubated for 30 mins in the presence of FeCl2 by UV-vis spectrophotometric analysis
[5] = Antioxidant activity assessed as DPPH radical scavenging activity at 10 uM incubated under dark condition for 30 mins by absorbance based plate reader analysis; assay type: functional
[6] = Competitive binding affinity to Cu(II) assessed as metal chelating activity by measuring compound-Cu(II) complex formation incubated for 30 mins in the presence of ZnSO4.7H2O by UV-vis spectrophotometric analysis
[7] = Competitive binding affinity to Cu(II) assessed as metal chelating activity by measuring compound-Cu(II) complex formation incubated for 30 mins in the presence of FeCl2 by UV-vis spectrophotometric analysis
[8] = Competitive binding affinity to Cu(II) assessed as metal chelating activity by measuring compound-Cu(II) complex formation incubated for 30 mins in the presence of MgSO4.7H2O by UV-vis spectrophotometric analysis
[9] = Competitive binding affinity to Cu(II) assessed as metal chelating activity by measuring compound-Cu(II) complex formation incubated for 30 mins in the presence of CaCl2 by UV-vis spectrophotometric analysis
[10] = Competitive binding affinity to Cu(II) assessed as metal chelating activity by measuring compound-Cu(II) complex formation incubated for 30 mins in the presence of NiCl2 by UV-vis spectrophotometric analysis
[11] = Metal chelating activity assessed as compound-Cu(II) complex formation by measuring hyperchromic shift at 1:1 molar ratio incubated for 30 mins by UV-Visible spectrophotometric analysis
[12] = molecular target: T1, Amyloid-beta precursor protein; experiment: Inhibition of Cu(II)-induced amyloid-beta (unknown origin) aggregation assessed as disaggregation at 10 uM preincubated with CuSO4.5H2O for 30 mins followed by compound addition and measured after 24 hrs by ThT fluorescence assay
[13] = Competitive binding affinity to Zn(II) assessed as metal chelating activity by measuring compound-Zn(II) complex formation incubated for 30 mins in the presence of CaCl2 by UV-vis spectrophotometric analysis
[14] = Competitive binding affinity to Zn(II) assessed as metal chelating activity by measuring compound-Zn(II) complex formation incubated for 30 mins in the presence of MnCl2 by UV-vis spectrophotometric analysis
[15] = Competitive binding affinity to Zn(II) assessed as metal chelating activity by measuring compound-Zn(II) complex formation incubated for 30 mins in the presence of NiCl2 by UV-vis spectrophotometric analysis
[16] = Competitive binding affinity to Zn(II) assessed as metal chelating activity by measuring compound-Zn(II) complex formation incubated for 30 mins in the presence of copper by UV-vis spectrophotometric analysis
[17] = Competitive binding affinity to Zn(II) assessed as metal chelating activity by measuring compound-Zn(II) complex formation incubated for 30 mins in the presence of MgSO4.7H2O by UV-vis spectrophotometric analysis
[18] = Metal chelating activity assessed as compound-Fe(III) complex formation by measuring hyperchromic shift at 1:1 molar ratio incubated for 30 mins by UV-Visible spectrophotometric analysis
[19] = Competitive binding affinity to Fe(III) assessed as metal chelating activity by measuring compound-Fe(III) complex formation incubated for 30 mins in the presence of MgSO4.7H2O by UV-Visible spectrophotometric analysis
[20] = Competitive binding affinity to Fe(III) assessed as metal chelating activity by measuring compound-Fe(III) complex formation incubated for 30 mins in the presence of NiCl2 by UV-Visible spectrophotometric analysis
[21] = molecular target: T1, Amyloid-beta precursor protein; experiment: Binding affinity to amyloid-beta (unknown origin) in Tris-HCL buffer assessed as conformational change at 10 uM at 1:1 molar ratio incubated for 24 hrs by circular dichroism analysis
[22] = Competitive binding affinity to Fe(III) assessed as metal chelating activity by measuring compound-Fe(III) complex formation incubated for 30 mins in the presence of copper by UV-Visible spectrophotometric analysis
[23] = Competitive binding affinity to Fe(III) assessed as metal chelating activity by measuring compound-Fe(III) complex formation incubated for 30 mins in the presence of CaCl2 by UV-Visible spectrophotometric analysis
[24] = Competitive binding affinity to Fe(III) assessed as metal chelating activity by measuring compound-Fe(III) complex formation incubated for 30 mins in the presence of zinc by UV-Visible spectrophotometric analysis
[25] = Competitive binding affinity to Fe(III) assessed as metal chelating activity by measuring compound-Fe(III) complex formation incubated for 30 mins in the presence of FeCl2 by UV-Visible spectrophotometric analysis
[26] = Metal chelating activity assessed as compound-Zn(II) complex formation by measuring hyperchromic shift at 1:1 molar ratio incubated for 30 mins by UV-Visible spectrophotometric analysis
[27] = Competitive binding affinity to Fe(III) assessed as metal chelating activity by measuring compound-Fe(III) complex formation incubated for 30 mins in the presence of MnCl2 by UV-Visible spectrophotometric analysis
[28] = Metal chelating activity assessed as compound-Fe(III) complex formation by measuring hyperchromic shift incubated for 30 mins by UV-Visible spectrophotometric analysis
[29] = Metal chelating activity assessed as compound-Cu(II) complex formation by measuring hyperchromic shift incubated for 30 mins by UV-Visible spectrophotometric analysis
[30] = Metal chelating activity assessed as compound-Zn(II) complex formation by measuring hyperchromic shift incubated for 30 mins by UV-Visible spectrophotometric analysis

For `CC(C)(C)OC(=O)N[C@H](CNc1c(N[C@@H](CCC(N)=O)C(=O)O)c(=O)c1=O)Cc1ccccc1`, the Activity (N2a) was “Non-Toxic”.

In the case of `CC(C)(C)OC(=O)N[C@H](CNc1c(N[C@@H](CCCNC(=N)N)C(=O)O)c(=O)c1=O)Cc1ccccc1`, the Activity (N2a) is reported as “Non-Toxic”.

In the case of `CC(C)(C)OC(=O)N[C@H](CNc1c(N[C@@H](Cc2c[nH]cn2)C(=O)O)c(=O)c1=O)Cc1ccccc1`, the Activity (N2a) is reported as “Non-Toxic”.

With `CC(C)(C)OC(=O)N[C@H](CNc1c(N[C@@H](CS)C(=O)O)c(=O)c1=O)Cc1ccccc1` the Activity (N2a) was “Non-Toxic”.

In the case of `CC(C)(C)OC(=O)N[C@H](CNc1c(N[C@@H](Cc2c[nH]c3ccccc23)C(=O)O)c(=O)c1=O)Cc1ccccc1`, the Activity (N2a) is reported as “Non-Toxic”.

With `CC(C)(C)OC(=O)N[C@H](CNc1c(N[C@@H](CCC(=O)O)C(=O)O)c(=O)c1=O)Cc1ccccc1` the Activity (N2a) was “Non-Toxic”.

With `CC(C)(C)OC(=O)N[C@H](CNc1c(N[C@@H](CCCCN)C(=O)O)c(=O)c1=O)Cc1ccccc1` the Activity (N2a) was “Non-Toxic”.

With `CSCC[C@H](Nc1c(NC[C@H](Cc2ccccc2)NC(=O)OC(C)(C)C)c(=O)c1=O)C(=O)O` the Activity (N2a) was “Non-Toxic”.

For `CC(C)(C)OC(=O)N[C@H](CNc1c(N[C@@H](CC(N)=O)C(=O)O)c(=O)c1=O)Cc1ccccc1`, the IC50 [1] was 17.5 µM, the Activity (N2a) was “Non-Toxic” and the inhibition [2] was “Active”.

With `C[C@H](Nc1c(NC[C@H](Cc2ccccc2)NC(=O)OC(C)(C)C)c(=O)c1=O)C(=O)O` the Activity (N2a) was “Non-Toxic”.

With `CC(C)[C@H](Nc1c(NC[C@H](Cc2ccccc2)NC(=O)OC(C)(C)C)c(=O)c1=O)C(=O)O` the Activity [3] was “inactive”, the Activity [4] was “Active” and the Activity [5] was “Active”. For the same compound, the Activity [6] was “inactive”, the Activity [7] was “inactive” and the Activity [8] was “inactive”. For the same compound, the Activity [9] was “inactive”, the Activity [10] was “inactive” and the Activity [11] was “inactive”. For the same compound, the IC50 [1] was 7.71 µM, the Activity (N2a) was “Non-Toxic” and the inhibition [12] was “Active”. The Activity [13] was “Active”, the Activity [14] was “Active” and the Activity [15] was “Active”. The Activity [16] was “Active”, the Activity [17] was “Active” and the inhibition [2] was “Active”.

For `CC(C)(C)OC(=O)N[C@H](CNc1c(N[C@@H](Cc2ccccc2)C(=O)O)c(=O)c1=O)Cc1ccccc1`, the IC50 [1] was 14.6 µM, the Activity (N2a) was “Non-Toxic” and the inhibition [2] was “Active”.

For `C[C@H](O)[C@H](Nc1c(NC[C@H](Cc2ccccc2)NC(=O)OC(C)(C)C)c(=O)c1=O)C(=O)O`, the Activity [18] was “Active”, the Activity [19] was “Active” and the Activity [20] was “Active”. For the same compound, the Activity [21] was “Active”, the Activity [3] was “Active” and the Activity [22] was “Active”. The Activity [23] was “Active”, the Activity [4] was “Active” and the Activity [5] was “Active”. The Activity [6] was “Active”, the Activity [7] was “Active” and the Activity [24] was “Active”. The Activity [25] was “Active”, the Activity [8] was “Active” and the Activity [9] was “Active”. The Activity [26] was “Active”, the Activity [10] was “Active” and the Activity [11] was “Active”. The IC50 [1] was 8.08 µM, the Activity (N2a) was “Non-Toxic” and the inhibition [12] was “Active”. The Activity [13] was “Active”, the Activity [27] was “Active” and the Activity [14] was “Active”. The Activity [15] was “Active”, the Activity [16] was “Active” and the Activity [17] was “Active”. For the same compound, the inhibition [2] was “Active”.

In the case of `CC(C)(C)OC(=O)N[C@H](CNc1c(N[C@@H](Cc2ccc(O)cc2)C(=O)O)c(=O)c1=O)Cc1ccccc1`, the Activity (N2a) is reported as “Non-Toxic”.

For `CC(C)(C)OC(=O)N[C@H](CNc1c(N[C@@H](CC(=O)O)C(=O)O)c(=O)c1=O)Cc1ccccc1`, the Activity (N2a) was “Non-Toxic”.

For `CC[C@@H](C)[C@H](Nc1c(NC[C@H](Cc2ccccc2)NC(=O)OC(C)(C)C)c(=O)c1=O)C(=O)O`, the Activity (N2a) was “Non-Toxic”.

In the case of `CC(C)(C)OC(=O)N[C@H](CNc1c(NCC(=O)O)c(=O)c1=O)Cc1ccccc1`, the Activity (N2a) is reported as “Non-Toxic”.

In the case of `CC(C)C[C@H](Nc1c(NC[C@H](Cc2ccccc2)NC(=O)OC(C)(C)C)c(=O)c1=O)C(=O)O`, the Activity (N2a) is reported as “Non-Toxic”.

For `COc1c(OC)c(=O)c1=O`, the Activity [28] was “Active”, the Activity [29] was “Active” and the Activity [30] was “Active”.

For `COc1c(NC[C@H](Cc2ccccc2)NC(=O)OC(C)(C)C)c(=O)c1=O`, the Activity [28] was “Active”, the Activity [29] was “Active” and the Activity [30] was “Active”.

For `CC(C)(C)OC(=O)N[C@H](CNc1c(N2CCC[C@H]2C(=O)O)c(=O)c1=O)Cc1ccccc1`, the Activity (N2a) was “Non-Toxic”.

For `CC(C)(C)OC(=O)N[C@H](CN)Cc1ccccc1`, the Activity [28] was “inactive”, the Activity [29] was “inactive” and the Activity [30] was “inactive”.

In the case of `CC(C)(C)OC(=O)N[C@H](CNc1c(N[C@@H](CO)C(=O)O)c(=O)c1=O)Cc1ccccc1`, the Activity (N2a) is reported as “Non-Toxic”.
